Test results: paper PMC6309729 (Biochemistry, 2011)

What was measured:
Type in all cases: biochemical
cpSRP54•cpFtsY complex = target: T1, cpSRP54•cpFtsY complex (Arabidopsis thaliana, UniProt O80842+P37107); assay: reciprocally stimulated multiple-turnover GTPase assay; conditions: 25 °C, pH 7.5, 100 μM GTP, 100 nM cpSRP54, varied cpFtsY
T1 sequence (P37107 76-564): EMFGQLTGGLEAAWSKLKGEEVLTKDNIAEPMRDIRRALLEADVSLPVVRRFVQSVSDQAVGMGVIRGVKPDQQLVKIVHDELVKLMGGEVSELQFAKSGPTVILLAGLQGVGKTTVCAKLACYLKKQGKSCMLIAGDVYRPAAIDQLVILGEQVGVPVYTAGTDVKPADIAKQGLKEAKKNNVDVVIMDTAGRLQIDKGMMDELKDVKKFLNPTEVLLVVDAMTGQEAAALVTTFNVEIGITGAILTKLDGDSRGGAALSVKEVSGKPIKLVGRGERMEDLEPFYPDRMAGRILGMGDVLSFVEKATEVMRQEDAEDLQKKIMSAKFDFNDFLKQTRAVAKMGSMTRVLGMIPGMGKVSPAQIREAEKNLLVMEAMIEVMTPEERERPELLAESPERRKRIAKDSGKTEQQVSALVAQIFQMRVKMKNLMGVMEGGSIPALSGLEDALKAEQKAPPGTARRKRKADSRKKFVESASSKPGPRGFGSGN
T1 sequence (O80842 41-366): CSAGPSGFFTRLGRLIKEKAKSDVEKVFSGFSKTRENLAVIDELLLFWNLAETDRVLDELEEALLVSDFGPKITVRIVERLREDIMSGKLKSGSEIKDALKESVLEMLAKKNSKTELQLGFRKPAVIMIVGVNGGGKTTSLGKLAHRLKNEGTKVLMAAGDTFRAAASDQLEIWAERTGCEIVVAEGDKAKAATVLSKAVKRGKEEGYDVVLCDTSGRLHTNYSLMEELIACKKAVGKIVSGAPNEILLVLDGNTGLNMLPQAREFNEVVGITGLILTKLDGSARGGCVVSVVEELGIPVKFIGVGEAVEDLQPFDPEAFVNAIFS

cpSRP54 = target: T2, cpSRP54 (Arabidopsis thaliana, UniProt P37107); assay: basal GTP binding / GTPase assay; conditions: 25 °C, pH 7.5, Mg(OAc)2; cpSRP54 alone
T2 sequence (P37107 76-564): T1 sequence (P37107 76-564)

cpFtsY = target: T3, cpFtsY (Arabidopsis thaliana, UniProt O80842); assay: basal GTP binding / GTPase assay; conditions: 25 °C, pH 7.5, Mg(OAc)2; cpFtsY alone
T3 sequence (O80842 41-366): T1 sequence (O80842 41-366)

`Nc1nc2c(ncn2[C@@H]2O[C@H](COP(=O)(O)OP(=O)(O)OP(=O)(O)O)[C@@H](O)[C@H]2O)c(=O)[nH]1` [GTP] was tested, and the “reciprocally stimulated multiple-turnover GTPase assay” value (cpSRP54•cpFtsY complex) was “reciprocally stimulated GTPase reaction between cpFtsY and cpSRP”, the “basal GTP binding / GTPase assay” value (cpSRP54) was “basal GTP binding and hydrolysis activity (Tables S3 and S4 of Supporting Information, respectively)” and the “basal GTP binding / GTPase assay” value (cpFtsY) was “basal GTP binding and hydrolysis activity (Tables S3 and S4 of Supporting Information, respectively)”.
